Source: patent US12589143B2, “Human anti-PD-L1 peptide vaccines and methods of their use” (priority 2019, dated 2026)
Several values for one entry are separate records, joined by “and”; a condition that tells them apart may be missing. Identical values can stand only once. Where no end group is shown, it is not given here.

Test system: MVF-PD-L1 peptide immunogen
Assay: Immunogenicity in Balb/c mice, experiment 1 (CT26 WT): ELISA of sera vs each MVF-PD-L1 peptide immunogen
Assay type: in vivo
Details: for Immunogenicity (titers) 1′ Conc. 1:: Balb/c mice
Summary of the method: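 Female Balb/c mice aged 6–8 weeks received 100 μg of each MVF-PD-L1 peptide in Montanide ISA 720 with nor-MDP three times at 3-week intervals. Weekly sera were titered by ELISA against each immunogen on 200 ng/well peptide. Titer was the highest dilution giving absorbance 0.2 after blank subtraction.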

KLLSLIKGVIVHRLEGVEGPSLYRCMISYGGADYKRITVK (KLLSLIKGVIVHRLEGVEGPSLYRCMISYGGADYKRITVK-NH2) [PD-L1(95)]
Immunogenicity (titers) 1′ Conc. 1: (bleed 1Y + 3): 0
Immunogenicity (titers) 1′ Conc. 1: (bleed 2Y + 1): 12800
Immunogenicity (titers) 1′ Conc. 1: (bleed 2Y + 2): 32000
Immunogenicity (titers) 1′ Conc. 1: (bleed 2Y + 3): 32000
Immunogenicity (titers) 1′ Conc. 1: (bleed 3Y + 1): 32000
Immunogenicity (titers) 1′ Conc. 1: (bleed 3Y + 2): 64000
Immunogenicity (titers) 1′ Conc. 1: (bleed 3Y + 3): 32000
ELISA absorbance of sera (bleed 1Y + 3 (1to100), dilution 100): 0.165 and 0.150
ELISA absorbance of sera (bleed 1Y + 3 (1to100), dilution 200): 0.088 and 0.078
ELISA absorbance of sera (bleed 1Y + 3 (1to100), dilution 400): 0.040 and 0.036
ELISA absorbance of sera (bleed 1Y + 3 (1to100), dilution 800): 0.020 and 0.021
ELISA absorbance of sera (bleed 1Y + 3 (1to100), dilution 1,600): 0.008 and 0.007
ELISA absorbance of sera (bleed 1Y + 3 (1to100), dilution 3,200): 0.006
ELISA absorbance of sera (bleed 1Y + 3 (1to100), dilution 6,400): 0.002 and 0.001
ELISA absorbance of sera (bleed 2Y + 1 (1to100), dilution 100): 1.499 and 1.508
ELISA absorbance of sera (bleed 2Y + 1 (1to100), dilution 200): 1.399 and 1.429
ELISA absorbance of sera (bleed 2Y + 1 (1to100), dilution 400): 1.232 and 1.283
ELISA absorbance of sera (bleed 2Y + 1 (1to100), dilution 800): 0.988 and 1.067
ELISA absorbance of sera (bleed 2Y + 1 (1to100), dilution 1,600): 0.768 and 0.793
ELISA absorbance of sera (bleed 2Y + 1 (1to100), dilution 3,200): 0.508 and 0.560
ELISA absorbance of sera (bleed 2Y + 1 (1to100), dilution 6,400): 0.303 and 0.339
ELISA absorbance of sera (bleed 2Y + 1 (1to100), dilution 12,800): 0.235 and 0.201
ELISA absorbance of sera (bleed 2Y + 2 (1to1k), dilution row 100 (Table 5C), dilution 100): 1.553 and 1.522
ELISA absorbance of sera (bleed 2Y + 2 (1to1k), dilution row 200 (Table 5C), dilution 200): 1.327 and 1.281
ELISA absorbance of sera (bleed 2Y + 2 (1to1k), dilution row 400 (Table 5C), dilution 400): 1.035 and 0.982
ELISA absorbance of sera (bleed 2Y + 2 (1to1k), dilution row 800 (Table 5C), dilution 800): 0.777 and 0.736
ELISA absorbance of sera (bleed 2Y + 2 (1to1k), dilution row 1,600 (Table 5C)): 0.502 and 0.525
ELISA absorbance of sera (bleed 2Y + 2 (1to1k), dilution row 3,200 (Table 5C)): 0.294 and 0.299
ELISA absorbance of sera (bleed 2Y + 2 (1to1k), dilution row 6,400 (Table 5C)): 0.171 and 0.156
ELISA absorbance of sera (bleed 2Y + 2 (1to1k), dilution row 12,800 (Table 5C)): 0.085
ELISA absorbance of sera (bleed 2Y + 3 (1to1k), dilution 100): 1.256 and 1.224
ELISA absorbance of sera (bleed 2Y + 3 (1to1k), dilution 200): 1.126 and 1.121
ELISA absorbance of sera (bleed 2Y + 3 (1to1k), dilution 400): 0.933 and 0.900
ELISA absorbance of sera (bleed 2Y + 3 (1to1k), dilution 800): 0.714 and 0.699
ELISA absorbance of sera (bleed 2Y + 3 (1to1k), dilution 1,600): 0.500 and 0.484
ELISA absorbance of sera (bleed 2Y + 3 (1to1k), dilution 3,200): 0.318 and 0.296
ELISA absorbance of sera (bleed 2Y + 3 (1to1k), dilution 6,400): 0.150 and 0.154
ELISA absorbance of sera (bleed 3Y + 1 (1to1k), dilution 100): 1.597 and 1.466
ELISA absorbance of sera (bleed 3Y + 1 (1to1k), dilution 200): 1.387 and 1.308
ELISA absorbance of sera (bleed 3Y + 1 (1to1k), dilution 400): 1.090 and 0.994
ELISA absorbance of sera (bleed 3Y + 1 (1to1k), dilution 800): 0.859 and 0.753
ELISA absorbance of sera (bleed 3Y + 1 (1to1k), dilution 1,600): 0.527 and 0.511
ELISA absorbance of sera (bleed 3Y + 1 (1to1k), dilution 3,200): 0.275 and 0.263
ELISA absorbance of sera (bleed 3Y + 1 (1to1k), dilution 6,400): 0.154 and 0.081
ELISA absorbance of sera (bleed 3Y + 2 (1to1k), dilution 100): 2.076 and 1.906
ELISA absorbance of sera (bleed 3Y + 2 (1to1k), dilution 200): 1.803 and 1.701
ELISA absorbance of sera (bleed 3Y + 2 (1to1k), dilution 400): 1.417 and 1.293
ELISA absorbance of sera (bleed 3Y + 2 (1to1k), dilution 800): 1.116 and 0.979
ELISA absorbance of sera (bleed 3Y + 2 (1to1k), dilution 1,600): 0.685 and 0.664
ELISA absorbance of sera (bleed 3Y + 2 (1to1k), dilution 3,200): 0.357 and 0.342
ELISA absorbance of sera (bleed 3Y + 2 (1to1k), dilution 6,400): 0.201 and 0.205
ELISA absorbance of sera (bleed 3Y + 3 (1to1k), dilution 100): 1.811 and 1.973
ELISA absorbance of sera (bleed 3Y + 3 (1to1k), dilution 200): 1.616 and 1.713
ELISA absorbance of sera (bleed 3Y + 3 (1to1k), dilution 400): 1.228 and 1.346
ELISA absorbance of sera (bleed 3Y + 3 (1to1k), dilution 800): 0.930 and 1.061
ELISA absorbance of sera (bleed 3Y + 3 (1to1k), dilution 1,600): 0.631 and 0.651
ELISA absorbance of sera (bleed 3Y + 3 (1to1k), dilution 3,200): 0.230 and 0.244
ELISA absorbance of sera (bleed 3Y + 3 (1to1k), dilution 6,400): 0.081 and 0.096
